{"source": "patent US7745575B1", "about": "(Cellpep Pharma Inc., priority 2004, dated 2010)", "key": {"hKv1.2": {"biological_target": "hKv1.2 (Homo sapiens, UniProt P16389)", "sequence (P16389 whole entry, the tested form may be a part)": "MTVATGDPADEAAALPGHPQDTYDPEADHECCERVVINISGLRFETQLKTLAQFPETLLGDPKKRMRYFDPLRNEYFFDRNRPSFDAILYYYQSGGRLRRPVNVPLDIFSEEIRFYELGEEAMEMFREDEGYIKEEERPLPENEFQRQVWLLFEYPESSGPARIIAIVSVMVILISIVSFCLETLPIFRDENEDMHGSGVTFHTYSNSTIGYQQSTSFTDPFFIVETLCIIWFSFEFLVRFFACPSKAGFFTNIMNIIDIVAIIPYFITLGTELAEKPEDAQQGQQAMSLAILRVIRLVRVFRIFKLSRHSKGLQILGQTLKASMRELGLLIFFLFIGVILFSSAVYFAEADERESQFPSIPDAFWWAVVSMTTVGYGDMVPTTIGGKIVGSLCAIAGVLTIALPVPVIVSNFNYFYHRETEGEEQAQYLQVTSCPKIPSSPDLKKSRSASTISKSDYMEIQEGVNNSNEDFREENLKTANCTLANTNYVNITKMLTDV", "experiment": "patch-clamp whole-cell recording, K+ current block", "format": "cell-based", "description": "(§1) Electrophysiological experiments were carried out at 22-24° C. using the patch-clamp whole-cell recording mode. Cells were bathed with mammalian Ringer's solution (in mM): 160 NaCl, 4.5 KCl, 2 CaCl2, 1 MgCl2, and 10 HEPES (pH 7.4 with NaOH), with an osmolarity of 290-320 mOsm. […] A syringe-driven perfusion device was used to exchange the external recording bath solution. Two internal pipette solutions were used, one for measuring voltage-gated K^+ currents that contained (in mM): 155 KF, 2 MgCl2, 10 HEPES, and 10 EGTA (pH 7.2 with KOH), with an osmolarity of 290-320 mOsm and another for measuring Ca^2+-activated K^+ currents that contained (in mM): 135 K-aspartate, 8.7 CaCl2, 2 MgCl2, 10 EGTA, 10 HEPES (pH 7.2 with KOH), with an osmolarity of 290-320 mOsm. A free [Ca^2+]i of 1 μM was calculated. All currents through voltage-gated K^+ channels were elicited by 200 ms depolarising voltage steps from −80 to +40 mV. Potassium currents through KCa1.1, KCa2.1 and KCa3.1 were elicited by 1 μM internal [Ca^2+]i and 400 ms voltage ramps from −120 to 0 mV (for KCa3.1 channel and KCa1.1 channel) and from −120 to +40 mV (for KCa2.1 channel). Electrodes were pulled from glass capillaries (Science Products, Germany), and fire-polished to resistances of 2.5-5 MΩ. Membrane currents were measured with an EPC-9 or EPC-10 patch-clamp amplifier (HEKA Elektronik, Lambrecht, Germany) interfaced to a Macintosh computer running acquisition and analysis software (Pulse and PulseFit). When voltage-gated K^+ currents were measured, the capacitive and leak currents were subtracted using a P/10 procedure. Series resistance compensation (>80%) was used for currents above 2 nA. The holding potential was −80 mV in all experiments."}, "mKv1.1": {"biological_target": "mKv1.1 (Mus musculus, UniProt P16388)", "sequence (P16388 whole entry)": "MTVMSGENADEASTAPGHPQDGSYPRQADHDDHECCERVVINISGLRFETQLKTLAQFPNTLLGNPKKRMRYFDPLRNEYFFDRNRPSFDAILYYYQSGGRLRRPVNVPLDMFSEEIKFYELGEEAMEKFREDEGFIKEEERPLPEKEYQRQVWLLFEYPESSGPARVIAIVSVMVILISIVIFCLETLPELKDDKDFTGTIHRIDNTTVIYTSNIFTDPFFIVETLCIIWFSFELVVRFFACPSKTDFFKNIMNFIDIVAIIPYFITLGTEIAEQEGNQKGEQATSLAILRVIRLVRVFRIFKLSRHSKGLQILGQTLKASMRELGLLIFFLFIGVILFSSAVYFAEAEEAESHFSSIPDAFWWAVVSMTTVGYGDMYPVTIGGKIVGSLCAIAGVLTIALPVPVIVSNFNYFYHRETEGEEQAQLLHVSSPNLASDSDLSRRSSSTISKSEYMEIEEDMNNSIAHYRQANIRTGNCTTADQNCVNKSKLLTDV", "experiment": "patch-clamp whole-cell recording, K+ current block", "format": "cell-based", "description": "as §1"}, "mKv1.3": {"biological_target": "mKv1.3 (Mus musculus, UniProt P16390)", "sequence (P16390 whole entry)": "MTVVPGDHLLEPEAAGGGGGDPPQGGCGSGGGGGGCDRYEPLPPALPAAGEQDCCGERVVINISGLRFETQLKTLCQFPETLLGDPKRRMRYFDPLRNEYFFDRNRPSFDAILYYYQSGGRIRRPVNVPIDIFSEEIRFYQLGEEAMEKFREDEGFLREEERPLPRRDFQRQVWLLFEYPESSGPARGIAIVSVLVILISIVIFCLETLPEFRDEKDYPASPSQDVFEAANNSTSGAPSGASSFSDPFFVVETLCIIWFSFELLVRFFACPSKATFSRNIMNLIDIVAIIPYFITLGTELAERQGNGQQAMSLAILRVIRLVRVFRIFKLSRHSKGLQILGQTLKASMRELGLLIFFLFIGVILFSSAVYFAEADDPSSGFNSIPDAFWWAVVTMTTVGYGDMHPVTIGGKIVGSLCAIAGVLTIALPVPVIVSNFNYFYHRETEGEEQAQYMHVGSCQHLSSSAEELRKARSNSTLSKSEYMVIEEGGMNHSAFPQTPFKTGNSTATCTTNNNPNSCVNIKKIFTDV", "experiment": "patch-clamp whole-cell recording, K+ current block", "format": "cell-based", "description": "as §1"}, "hIK1 (KCa3.1)": {"biological_target": "hIK1 (KCa3.1) (Homo sapiens, UniProt O15554)", "sequence (O15554 whole entry)": "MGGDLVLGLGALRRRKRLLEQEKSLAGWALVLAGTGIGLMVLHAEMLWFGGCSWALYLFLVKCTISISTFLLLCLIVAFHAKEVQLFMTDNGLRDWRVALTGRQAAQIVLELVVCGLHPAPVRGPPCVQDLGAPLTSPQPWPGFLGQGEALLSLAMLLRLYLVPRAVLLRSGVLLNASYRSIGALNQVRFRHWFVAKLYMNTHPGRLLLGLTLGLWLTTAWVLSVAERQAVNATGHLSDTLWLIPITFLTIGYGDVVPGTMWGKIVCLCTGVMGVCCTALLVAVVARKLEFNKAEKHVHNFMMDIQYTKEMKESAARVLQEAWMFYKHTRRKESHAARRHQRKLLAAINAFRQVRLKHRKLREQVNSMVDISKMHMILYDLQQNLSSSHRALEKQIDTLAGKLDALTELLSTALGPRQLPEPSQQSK", "experiment": "patch-clamp whole-cell recording, Ca2+-activated K+ current block", "format": "cell-based", "description": "as §1"}, "[1]": {"experiment": "toxicity in vivo, LD50 after intracerebroventricular injection", "settings": "mouse, icv or intrathecal, 20 g C57/BL6 mice", "description": "Groups of six to eight mice per dose were injected with 5 μl peptide solution containing 0.1% (w/v) bovine serum albumin and 0.9% (w/v) NaCl. The LD50 values are set out in Table 5."}}, "note": "Bridge positions count the residues as written; N and C are the ends. Peptide text beside a SMILES is read from it."}
{"smiles": "CC[C@H](C)[C@@H]1NC(=O)[C@H](CCCCN)NC(=O)[C@@H](NC(=O)[C@H](CCCCN)NC(=O)[C@@H](NC(=O)[C@H](CC(N)=O)NC(=O)[C@@H](NC(=O)[C@@H](NC(=O)[C@@H](NC(=O)CN)C(C)C)[C@@H](C)CC)[C@@H](C)CC)C(C)C)CSSC[C@@H]2NC(=O)[C@H](CCCCN)NC(=O)CNC(=O)[C@H](Cc3ccccc3)NC(=O)[C@H](CCCNC(=N)N)NC(=O)[C@H](CCSC)NC(=O)CNC(=O)[C@H](C)NC(=O)[C@H](CC(=O)O)NC(=O)[C@H](CCCCN)NC(=O)[C@@H]3CSSC[C@@H](C(=O)N[C@@H](Cc4ccc(O)cc4)C(=O)N4CCC[C@H]4C(=O)N[C@@H](CCCCN)C(=O)O)NC(=O)[C@H](Cc4c[nH]cn4)NC(=O)[C@H](CSSC[C@H](NC(=O)[C@H](CCC(N)=O)NC(=O)[C@H](CCCNC(=N)N)NC(=O)[C@H](CO)NC1=O)C(=O)N[C@@H](CC(C)C)C(=O)N[C@@H](CCCCN)C(=O)N1CCC[C@H]1C(=O)N3)NC(=O)[C@H](CCCCN)NC(=O)CNC(=O)[C@H](CC(N)=O)NC(=O)[C@H](CCSC)NC2=O", "note": "(H-GVIINVKCKISRQCLKPCKDAGMRFGKCMNGKCHCYPK-OH; disulfide 8-28, 14-33, 18-35)", "values": [{"measurement": "IC50", "setting": "hKv1.2", "value": "0.2318 ± 0.0001", "unit": "µM"}, {"measurement": "IC50", "setting": "mKv1.1", "value": "0.0344 ± 0.0003", "unit": "µM"}, {"measurement": "IC50", "setting": "mKv1.3", "value": "0.000122 ± 7e-06", "unit": "µM"}, {"measurement": "IC50", "setting": "hIK1 (KCa3.1)", "value": "0.885 ± 0.018", "unit": "µM"}, {"measurement": "LD50", "setting": "[1]", "value": 9, "unit": "µg/kg"}]}
